Measurements taken from patent US20170128059A1, “METHODS AND APPARATUS FOR PREVENTION OF SURGICAL SITE INFECTIONS” (priority 2015, published 2017).

Tests used:
[1] = finite-element (COMSOL) simulation of local gentamicin delivery to a retracted surgical wound; details: calculated model parameter, adipose wound tissue
Excerpt: In order to better understand the differences between systemic delivery and local delivery of therapeutic agents, a finite-element analysis software package (COMSOL) was used to generate a three dimensional (3D) model of a retracted surgical wound with a 12 cm incision. […] The 3D model shown in FIG. 23 was modeled in a Computer Aided Design (CAD) package (Solidworks) based on the geometry of the device and the retracted wound tissue in a cadaver.
Gentamicin, a member of the aminoglycoside family, was used as the antibiotic in the model due to its prevalence in clinical use to combat the enteric, gram-negative bacteria that cause wound infections. A concentration of 240 mg/L was delivered during the simulated 4 hr surgery based on standard clinical protocols.
where Φ, D, and C are the particle flux, diffusion coefficient, and concentration, respectively. […]
The diffusion coefficients of various solutes and solvents have been experimentally obtained and published. However, for solute-solvent combinations that have not been published or experimentally determined, the molecular weight of a given solute may be correlated to the diffusion coefficient in the same solvent using a logarithmic relation. […]
The simulation was run for four hours to mimic a standard colorectal procedure and the antibiotic flux and tissue concentration was recorded at each time step.

E. coli [2] = assay: acute abdominal surgical model with E. coli contamination, quantitative wound tissue culture; type: in vivo, pigs; details: E-F group
Procedure: In the gentamicin group, the degree of systemic absorption of the antibiotic was quantified.
Seven female adult pigs weighing 50-70 kg were placed under general anesthesia and monitored for the duration of the experimental protocol. The abdomen was shaved, sterilely prepped with chlorhexidine solution, and draped under sterile conditions. A 12-cm periumbilical midline incision was made and the abdominal cavity was entered. After approximately 2.5 hours of wound retraction to simulate a prototypical length of time for colonic dissection, a gentamicin-sensitive E. coli suspension at a standardized concentration of 10^9 colony-forming units (CFU) in 10 mL normal saline was dripped onto the central colon. E. coli is classified as an enteric bacteria species. […]
FIGS. 28A-28B show the locations at which two swab samples were taken just prior to device removal (e.g. at Time 1). […] Colonies were identified as E. coli, enumerated, and recorded, and the results for serial dilutions were internally validated. […] Tissue culture results were expressed as colony-forming units (CFU) per gram. […]
Quantitative culture results were expressed in mean±standard deviation (SD). Statistical comparisons of quantitative culture results were performed using the Student's t-test. Significance was determined based on a value of p<0.05.

E. coli [3] = details: cited from earlier work
E. coli [4] = assay: minimum inhibitory concentration of gentamicin, E. coli; type: cell-based
Excerpt: The extent of absorption of a fluid or solute into the tissue may be a function of the rate of fluid delivery, concentration of solutes (if any) in the delivered fluid, physical characteristics of the solutes (if any), the porosity of the tissue, tortuousity of the tissue, systemic absorption via the capillary bed and subsequent renal clearance, and/or the time period over which the surgical device and delivered fluid are in contact with the wound tissues. […] The minimum inhibitory concentration (16 mg/L) was reached are the wound surface in about 3 minutes of fluid delivery. […] The surgical device may thus be able to reduce microbial growth in wounds even after being removed, which may result in a lower risk of developing a surgical site infection.
The surgical device may be used to deliver a therapeutic fluid to a wound tissue to maintain a constant therapeutic concentration in the tissue. The therapeutic concentration in the tissue may be maintained for a portion of or the entire duration of the surgical procedure. The concentration of the therapeutic agent (e.g. antibiotic) may be maintained within a pre-determined range. The pre-determined concentration may depend on the type of therapeutic used as described herein. […] The therapeutic concentration may be at or above the minimum inhibitory concentration. […]

[5] = serum and wound tissue gentamicin concentration by ELISA after local delivery through the surgical device; details: E-F group
Procedure: The 7 pigs were divided into two groups each: 1. Control (n=1) where no device was used and a sham procedure was performed. 2. “Experimental-No Fluid” (E-NF) group (n=3) where the surgical device was used without any irrigation delivered through the device in order to mimic conditions with other non-irrigating surgical retractors. 3. […] The irrigation fluid was delivered via gravity drainage from an IV bag hung on a pole at a height of 6 feet, and removal of fluid from the device was achieved via wall suction into a standard surgical canister. Both the fluid delivery and fluid removal mechanisms were integrated into the surgical device via separate tubing connections. The total time of irrigation averaged approximately 4 hours.
Experimental data was collected at two time points. Time 1 was after 4 hours of simulated surgery and/or irrigation and at the time of device removal. Time 2 was 4 hours after wound closure (e.g. at the time of wound reopening).
In the E-F group, peripheral blood samples were drawn by the anesthetists at Times 1 and 2. The blood was collected in serum-separator tubes and centrifuged. […] Two 4 mm×8 mm punch biopsies at each time point were taken, homogenized, and diluted in 1 mL phosphate buffered saline (PBS). The sample was centrifuged, and the supernatant was isolated for ELISA analysis.

[6] = system: gram-negative bacteria present in colorectal surgeries; details: required to neutralize gram-negative bacteria present in colorectal surgeries; cited from earlier work
[7] = intravenous administration, 240 mg; cited from earlier work

gentamicin
Effective Diffusion Coefficient [1]: 1.88E−6 cm^2/s | quantitative wound culture (E. coli) in tissue sample (E. coli [2]; 240 mg gentamicin sulfate in 1 L saline through device, Time 1 (device removal)): 1.25±1.55×10^2 CFU/gm | quantitative wound culture (E. coli) in tissue sample (E. coli [2]; Time 2 (4 hours after wound closure)): 2.08±3.01×10^2 CFU/gm | minimum inhibitory concentration (E. coli [3]): 16 µg/mL | delivered fluid concentration (240 mg/L) relative to typical minimum inhibitory concentration of E. coli (E. coli [4]): about 60 time greater | gentamicin concentration at the wound margins (tissue) ([5]; Time 1, punch biopsies of subcutaneous fat): 0.97 ± 0.33 mg/kg | gentamicin concentration at the wound margins (tissue) ([5]; Time 2, punch biopsies of subcutaneous fat): 0.60 ± 0.37 mg/kg | minimum inhibitory concentration (MIC) [6]: 0.003 mol/m^3 | peak tissue concentration relative to minimum inhibitory concentration [7]: 4.5 times | time of peak tissue concentration after administration [7]: roughly 20 minutes
